# Laboratory results from US20020155503A1 (priority 1997, published 2002).
# Target: protein tyrosine kinase v-Abl (Abelson murine leukemia virus, UniProt P00521)
# Details: Library Sub-Set 4 (X-Tyr-X-X-X)
# From the text: In the fourth application of this invention, a recombinant form of the Abelson murine leukaemia virus protein tyrosine kinase v-Abl was used in an in vitro phosphorylation reaction to phosphorylate the library sub-set 4 which scans the sequence −1 to +3 around a zero position tyrosine residue, as previously performed for the ZAP-70 library. Detection of phosphoryrosine was achieved using anti-phosphotyrosine antibody detection in an ELISA assay using tetramethylbenzidine substrate and recording absorbance at 450 nm. […] Deconvolution of the hit peptides was performed as described in WO 97/42216.
# Library peptides were phosphorylated in pools of 20 peptides at a final concentration of 1 μM total peptide in 50 mM HEPES, pH 7.5, 0.1% Triton X-100, 100 μM ATP, 10 mM MnCl2, 1 mM DTT and 0.2 mM sodium orthovanadate for 30 minutes at 30° C. These reaction mixtures were then stopped using 100 mM EDTA, 6 mM adenosine, transferred to strepavidin-coated microtiter plates and allowed to bind for 30 minutes at 20° C. Unincorporated reaction products were washed from the plate using PBS/0.1% Tween 20 then plate incubation performed with anti-phosphotyrosine antibody (Sigma mouse monoclonal clone PT66) in 2% BSA/PBS/Tween for 1 hour at 20° C. […] HRP detection was then performed with tetramethylbenzidine (TMB) substrate and measuring absorbance at 450 nm using a spectrophotometer (Dynex MRX). […]
# protein tyrosine kinase v-Abl, sequence (P00521 whole entry): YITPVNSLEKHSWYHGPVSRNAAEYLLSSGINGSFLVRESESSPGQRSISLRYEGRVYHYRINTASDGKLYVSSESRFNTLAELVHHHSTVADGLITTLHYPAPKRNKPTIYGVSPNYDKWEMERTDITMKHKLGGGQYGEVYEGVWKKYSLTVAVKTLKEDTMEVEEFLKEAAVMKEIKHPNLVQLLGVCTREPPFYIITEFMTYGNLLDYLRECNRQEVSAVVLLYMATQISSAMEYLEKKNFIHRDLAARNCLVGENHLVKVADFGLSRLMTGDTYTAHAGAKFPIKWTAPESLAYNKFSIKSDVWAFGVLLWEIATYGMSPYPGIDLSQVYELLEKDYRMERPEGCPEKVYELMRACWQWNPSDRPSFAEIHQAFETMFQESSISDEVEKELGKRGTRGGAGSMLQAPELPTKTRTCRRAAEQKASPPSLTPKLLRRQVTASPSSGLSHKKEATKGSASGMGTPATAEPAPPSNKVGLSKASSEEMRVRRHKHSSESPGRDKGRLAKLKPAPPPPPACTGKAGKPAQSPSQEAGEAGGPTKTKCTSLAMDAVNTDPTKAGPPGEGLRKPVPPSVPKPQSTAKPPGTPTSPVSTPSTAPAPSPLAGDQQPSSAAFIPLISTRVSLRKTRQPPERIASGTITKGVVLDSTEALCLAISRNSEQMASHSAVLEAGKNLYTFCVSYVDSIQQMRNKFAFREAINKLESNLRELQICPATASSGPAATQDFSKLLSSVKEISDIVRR
substance,measurement,value
Serine-tyrosine-phenylalanine-histamine-glutamine,substrate deconvoluted from library sub-set,active site substrate recognition substrate
